Data as given in patent US6361792B1, “Lipid dispersions and methods of use” (Alliance Pharmaceutical Corp., priority 1987, dated 2002).
“Also recorded” adds a separate entry of the source.

Experiments:
conscious swine = assay: Delayed febrile response (core body temperature) to intravenous lipid dispersion in conscious swine, with or without prophylaxis; type: in vivo; details: for effect on febrile reaction to fluorocarbon emulsion: prophylactic treatment, dose not given
Experimental: Swine were instrumented 48 hours prior to study for determination of core body temperature using a catheter-tipped thermistor, and for intravenous injection using an axillary vein catheter. On the day of study, core body temperature was determined at baseline and at regular intervals for 6 h after intravenous injection of Imagent®BP.

thromboxane synthetase = target: T1, thromboxane synthetase (Rattus norvegicus, UniProt P49430); details: in the rat; cited from earlier work
T1 sequence (P49430 1-533): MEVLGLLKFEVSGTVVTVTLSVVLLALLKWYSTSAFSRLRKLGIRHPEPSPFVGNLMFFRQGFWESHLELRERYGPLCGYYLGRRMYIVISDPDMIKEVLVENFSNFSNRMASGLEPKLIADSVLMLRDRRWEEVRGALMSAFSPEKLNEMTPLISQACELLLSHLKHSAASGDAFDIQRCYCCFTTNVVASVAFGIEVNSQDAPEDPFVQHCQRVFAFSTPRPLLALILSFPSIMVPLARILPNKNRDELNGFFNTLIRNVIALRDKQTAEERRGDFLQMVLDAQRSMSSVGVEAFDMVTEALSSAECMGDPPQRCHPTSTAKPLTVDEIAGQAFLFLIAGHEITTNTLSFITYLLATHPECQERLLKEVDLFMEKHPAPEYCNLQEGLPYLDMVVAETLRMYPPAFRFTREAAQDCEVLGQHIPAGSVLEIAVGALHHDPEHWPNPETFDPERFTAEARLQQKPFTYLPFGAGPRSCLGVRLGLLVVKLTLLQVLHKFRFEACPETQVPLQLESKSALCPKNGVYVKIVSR

anesthetized swine = assay: Prophylaxis of the acute hemodynamic response to intravenous fluorocarbon emulsion with cyclooxygenase inhibitors
Excerpt: All animals were fully anesthetized (ketamine-sodium pentobarbital), placed on positive pressure ventilation, and instrumented for determination of pulmonary artery pressure, cardiac output, ECG (electrocardiogram), right atrial pressure, and whole blood samples collections. Changes in skin color were also quantified using a relative color scale ranging from normal (light pink) to darker shades of pink and purple. Continuous electrocardiographs and oscillographic recordings of blood pressures were made. At least 30 minutes of baseline data were collected before intravascular administration of the substances. After control recordings, infusion of the pigs was carried out with 3 ml/kg body weight of either fluorocarbon emulsion as Imagent®BP (90% or 100% perfluorooctylbromide) or saline at a rate of 2 ml/min i.v. over 15 minutes.
A series of experiments was conducted to evaluate the effects of prophylactic treatment with cyclooxygenase inhibitors on the acute hemodynamic response to intravenous injection of 90% Imagent®BP in anesthetized swine. […] Animals receiving prophylaxis were administered indomethacin (0.5 mg/kg p.o.) prior to administration of the test article. Test swine were treated prophylactically with indomethacin, ibuprofen and aspirin.

tumor-bearing animals = details: cited from earlier work

## CC(=O)Nc1ccc(O)cc1 [acetaminophen]
Conscious swine
  effect on febrile reaction to fluorocarbon emulsion: not prevented

## Cn1ccnc1 [1-methyl-imidazole]
Thromboxane synthetase
  inhibition of thromboxane synthetase: act effectively to inhibit thromboxane synthetase

## methylprednisone
Conscious swine; oral 5 mg/kg 12 h and 2 h before injection (methylprednisone), 5 mg/kg
  effect on febrile response to Imagent BP: attenuated febrile response
Conscious swine; oral 5 mg/kg 12 h and 2 h before injection (methylprednisone), listed as Methylprednisone, 5 mg/kg
  effect on febrile response to Imagent BP: attenuates the response

## CC(=O)Oc1ccccc1C(=O)O [aspirin, acetylsalicylic acid]
Anesthetized swine; aspirin pretreatment vs Fluosol alone, FIG. 2
  effect on increased mPAP response to Fluosol (20% fluorocarbon emulsion): decreased response
Anesthetized swine; aspirin prophylaxis, oral 5 mg/kg 1 h before
  blood cell counts (erythrocytes, leukocytes, platelets) after Imagent BP: nearly identical to that seen with the saline control
Anesthetized swine; oral 5 mg/kg 1 h before Imagent BP (90%) 3 ml/kg i.v., 5 mg/kg
  effect on acute hemodynamic response (mPAP) to Imagent BP: prevent the acute hemodynamic response; also recorded: appeared to completely block any increases in mPAP
Conscious swine
  effect on febrile reaction to fluorocarbon emulsion: not prevented

## COc1ccc2cc([C@H](C)C(=O)O)ccc2c1 [naproxen]
Conscious swine; oral 5 mg/kg 1 h before injection (naproxen), 5 mg/kg
  effect on febrile response to Imagent BP: attenuated febrile response

## O=C(O)CCCCCCCn1ccnc1 [N(7-carboxyheptyl)imidazole]
Thromboxane synthetase
  inhibition of thromboxane synthetase: act effectively to inhibit thromboxane synthetase

## COc1ccc2c(c1)c(CC(=O)O)c(C)n2C(=O)c1ccc(Cl)cc1 [indomethacin, 1-(pchlorobenzoyl)-5-methoxy-2-methylindole-3-acetic acid]
Anesthetized swine; indomethacin i.v. bolus 10 mg/kg then 6 mg/kg/hr, Imagent BP 90% 3 ml/kg i.v.
  effect on acute hemodynamic response (mPAP) to Imagent BP: prevent the acute hemodynamic response; also recorded: virtually prevented all of the hemodynamic reactions

## CC(C)Cc1ccc(C(C)C(=O)O)cc1 (racemic) [ibuprofen, (±)-2-(p-isobutylphenyl)propionic acid]
Anesthetized swine; oral 20 mg/kg 1 h before Imagent BP 3 ml/kg i.v., 20 mg/kg
  effect on acute hemodynamic response (mPAP) to Imagent BP: prevent the acute hemodynamic response
Anesthetized swine; oral 20 mg/kg 1 h before Imagent BP 3 ml/kg i.v., listed as Ibuprofen, 20 mg/kg
  effect on acute hemodynamic response (mPAP) to Imagent BP: significantly attenuated the mPAP responses
Conscious swine; oral 20 mg/kg 1 h before injection, 6 h time course
  effect on febrile response to Imagent BP: significantly suppressed
tumor-bearing animals
  symptoms in reaction to intravenous fluorocarbon emulsion: alleviated

## O=C(O)CCCCCc1cccc2cncn12 [CGS 13080, imidazo(1,5-pyridine-5-hexanoic acid)]
Thromboxane synthetase
  inhibition of thromboxane synthetase: act effectively to inhibit thromboxane synthetase

## O=C(O)c1ccc(OCCn2ccnc2)cc1 [dazoxiben, 4-(2-(1 H-imidazol-1 yl)ethoxy)benzoic acid]
Thromboxane synthetase
  inhibition of thromboxane synthetase: act effectively to inhibit thromboxane synthetase
